≈ marks a conversion by molar mass, not a printed value. Where a name gives a salt, the structure may show the parent alone. Read-outs that look alike come from different tables or passages of the source.
What was measured:
[1] = Solubility; format: physicochemical
Protocol: A stir bar was put in the vial. The vials were closed with caps and placed on stir plate. […] After equilibration, the samples were centrifuged. An accurate aliquot of clear solution was transferred to a HPLC vial by micropipette. The solubility was determined by HPLC with UV detector and against standard.

[2] = Pharmacokinetic studies in male beagle dogs; format: in vivo, beagle dog
Protocol: Compound 34 (634A in tables and on plots) was dosed as a solid as well as in solution form to male beagle dogs according to the following protocol. Plasma samples were analyzed using the following methods:
Blood samples from the test animals were drawn at periodic intervals, before, and after administration of the test articles. The samples were dispensed into chilled (˜+4° C.) blood tubes containing EDTA anticoagulant which were stored “on ice” (˜+4° C.) prior to centrifugation and separation of the plasma fractions. The plasma samples were transferred to frozen storage (−20° C.) within 30 minutes of blood sampling.
The plasma samples were thawed at room temperature, vortex-mixed for 10 seconds, and 100 μL aliquots transferred to 96-well micro-plates. […]
The supernatant fractions of the wells were transferred to a fresh micro-plate and then evaporated to dryness at 37° C. under a stream of (O2-free) nitrogen. The well residues were reconstituted in 100 μL volumes of acetonitrile:water:acetic acid (40:59.9:0.1 v/v/v) and 20 μL volumes were analyzed by HPLC-MS-MS. […]
The measurement of signal peaks areas, calibration and quantification were carried out using the Turbo-Quan V1.5 (Sciex Inc.) data acquisition and processing software (DAQ) suite. […]

[3] = Oral bioavailability in male Sprague-Dawley rats; format: in vivo, Sprague-Dawley (CD) rat; settings: for AUC(0-inf): rat, plasma
Protocol: Methods used were generally as described in Example 53, with the following modifications: Sample Collection—In addition to anticoagulant (EDTA), an enzyme inhibitor cocktail containing 50 μL of 100 mM AEBSF (4-(2-aminoethyl)benzenessulfonylfluoride HCl, CalBioChem, cat. no. 101500); 200 mM Benzamide(CalBioChem, cat. no. 199001); and 200 mM EACA (Epislon Amino-n-caproic acid, CalBioChem cat. no. 1381) in FTA Hemaglutionation Buffer (Becton Dickson, cat. no. 4311248) per 1 mL of blood was added to rat blood samples at the time of collection.
HPLC-MS-MS Conditions—Chromatography was performed on a Phenomenex Aqua C18 HPLC Mercury Cartridge (3-micron particle size, 20 mm×2 mm id) or Luna C18 column (50×2 mm).

[4] = system: HIV-1 wild type virus; experiment: Anti-HIV activity of parent compounds, wild type virus (Table 1; HeLa-CD4-LTR-β-gal cell assay); format: cell-based; settings: Human immunodeficiency virus 1, read-out: Wt
Protocol: (§1) The HeLa cell assay was performed according to a modifcation of Kimpton J. and Emerman M., Detection of replication-competent and pseudotyped human inmmunodeficiency virus with a sensitive cell line on the basis of activation of an integrated β-galactosidase gene, J. Virol. 66:2232-2239 (1992), in which HIV-1 infection is detected by the activation of an HIV-LTR driven β-galactosidase reporter that is integrated into the genome of a CD4^+ HeLa cell line. Quantitation of β-galactosidase is achieved by measuring the activation of a chemiluminescent substrate (Tropix). The concentration of each compound required to inhibit 50% (IC50) of the HIV-1 induced β-galactosidase signal, relative to untreated controls, was determined for each isogenic, recombinant virus.
(§2) HeLa-CD4-LTR-β-gal cells are propagated in DMEM containing 10% fetal bovine serum+0.2 mg/ml geneticin+0.1 mg/ml hygromycin B. Cells are split by standard trypsinization when confluency reaches 80% (roughly every 2 to 3 days).
(§3) DNA encoding the HIV-1 reverse transcriptase was subcloned from a M13 phage into a general shuttle vector, pBCSK+, as a ˜1.65 kbp EcoRI/HindIII ended DNA fragment. The HIV DNA insert of the resulting plasmid, pRT2, was completely sequenced on both strands prior to use in site directed mutagenesis experiments. Specific amino acid replacements were made using Stratagene Quick Change reagents and mutagenic oligonucleotides from Oligos. […]
(§4) Mutant HIV-1 strains were isolated by a modified Recombinant Virus Assay (Kellamn P. and Larder B., Recombinant virus assay: a rapid, phenotypic assay for assessment of drug susceptibility of human immunodeficiency virus type 1 isolates, Antimicrobial Agents and Chemotherapy, 38:23-30,1994). […] Transfected cell cultures were expanded and monitored until syncitia formation and CPE were extensive. […]
(§5) HIV-1 virus stocks must be titered in the MAGI assay system to establish the appropriate infecting dose. The endpoint for this assay is relative light units (RLUs), and titer is recorded as RLUs/ml. […]

[5] = system: Nev-R mutant virus; experiment: Anti-HIV activity of parent compounds, Nev-R mutant virus (Table 1; HeLa-CD4-LTR-β-gal cell assay); format: cell-based, HIV-1; settings: Human immunodeficiency virus 1, read-out: Nev-R
Protocol: as §1, §2, §3, §4, §5

Work on CCC(=O)NS(=O)(=O)c1ccc(NC(=O)COc2ccc(Cl)cc2C(=O)c2cc(Cl)cc(C#N)c2)c(C)c1.[Ca] [Calcium salt, 2-[4-chloro-2-(3-chloro-5-cyanobenzoyl)phenoxy]-N-{2-methyl-4-[(propionylamino)sulfonyl]phenyl}acetamide, Calcium Salt, Form 2] yielded a solubility ([1]; water, Crystal Form 2) of 0.7 mg/mL.

With CCC(=O)NS(=O)(=O)c1ccc(NC(=O)COc2ccc(Cl)cc2C(=O)c2cc(Cl)cc(C#N)c2)c(C)c1 [Compound 34, 2-[4-chloro-2-(3-chloro-5-cyanobenzoyl)phenoxy]-N-{2-methyl-4-[(propionylamino)sulfonyl]phenyl}acetamide, Sodium Salt] the “appearance of active inhibitor compound 40 in plasma after administration” value [2] was “appears in the plasma”, the “bioavailability after oral administration (in words)” value ([2]; oral) was “excellent bioavailability” and the “appearance of active inhibitor compound 40 in plasma after administration” value [3] was “appears in the plasma”. The “bioavailability after oral administration (in words)” value ([3]; oral, in comparison to the parent compound 40) was “improved bioavailability”, the solubility ([1]; water, thermodynamic from solid, water, Amorphous, read-out: Solubility) was greater than 100 mg/mL and the solubility ([1]; water, thermodynamic from solid, water, Crystal Form 1, read-out: Solubility) was 92 mg/mL. It also gave a solubility ([1]; water, thermodynamic from solid, water, Crystal Form 4, read-out: Solubility) of 2.5 mg/mL, a solubility ([1]; water, thermodynamic from solid, water, Crystal Form 9, read-out: Solubility) greater than 100 mg/mL and a solubility ([1]; water, thermodynamic from solid, water, Crystal Form 10, read-out: Solubility) greater than 100 mg/mL. For the same compound, the solubility ([1]; water, thermodynamic from solid, water, Crystal Form 12, read-out: Solubility) was greater than 100 mg/mL.

With Cc1cc(S(N)(=O)=O)ccc1NC(=O)COc1ccc(Cl)cc1C(=O)c1cc(Cl)cc(C#N)c1 [Compound 40, N-[4-(aminosulfonyl)-2-methylphenyl]-2-[4-chloro-2-(3-chloro-5-cyanobenzoyl)phenoxy]acetamide] the IC50 [4] was 0.5 to 1.8 nM, the IC50 [5] was 0.4 to 1.2 nM and the “Mean Exposures of 40 Fapp” value ([3]; free acid, Amorph., PO (soln) 1 mg/kg, DMSO:Tween-80:5% Mannitol (20:0.1:79.9)) was 7%. It also gave an AUC(0-inf) ([3]; free acid, Amorph., IV 1 mg/kg, PEG400:Solutol:Water (30:20:50), read-out: Mean Exposures of 40 AUC0-∞) of 1740 ± 363 ng·h/mL, an AUC(0-inf) ([3]; free acid, Amorph., PO (soln) 1 mg/kg, DMSO:Tween-80:5% Mannitol (20:0.1:79.9), n = 1, read-out: Mean Exposures of 40 AUC0-∞) of 128 ng·h/mL and a solubility ([1]; fassgf or other biorelevant, thermodynamic from solid, SIF, Crystal Form 1, read-out: Solubility) of 0.0029 mg/mL (≈ 5.59 µM).

With CCC(=O)NS(=O)(=O)c1ccc(NC(=O)COc2ccc(Cl)cc2C(=O)c2cc(Cl)cc(C#N)c2)c(C)c1 [Compound 41, 2-[4-chloro-2-(3-chloro-5-cyanobenzoyl)phenoxy]-N-{2-methyl-4-[(propionylamino)sulfonyl]phenyl}acetamide] the “solubility (in words)” value ([1]; in comparison with compound 40) was “improved solubility”.

Compound Cc1cc(S(N)(=O)=O)ccc1NC(=O)COc1ccc(Cl)cc1C(=O)c1cc(C#N)cc(C(F)(F)F)c1 [Compound 58] has an IC50 [4] of 2.4 nM and an IC50 [5] of 0.9 nM.

Compound Cc1cc(S(N)(=O)=O)ccc1NC(=O)COc1ccc(Cl)cc1C(=O)c1cc(F)cc(C(F)(F)F)c1 [Compound 71] has an IC50 [4] of 0.1 to 28 nM and an IC50 [5] of 0.4 to 14 nM.

Source: patent publication US6995283B2, “Benzophenones as inhibitors of reverse transcriptase” (priority 2001, dated 2006)
